Test results as given in US4127687A, “Prevention of fouling of marine structures such as boat hulls” (Rohm and Haas Company, priority 1976, dated 1978).
In brackets after ≈: the same amount, converted by molar mass.

Assays:
[1] = test system: Hydroids; test: Membrane test, hydroids (Table 1 footnote d); format: in vivo; set-up: key: Effective against Hydroids
Source text: 1). FIELD TESTS: - Membrane Diffusion Raft Trials
A known quantity of the test compound is placed into a cylindrical plastic container whose open end is then covered with a membrane of known porosity; the complete unit is attached to the appropriate raft panel so that the poison can freely diffuse into the free water layer around it. Regular inspections, recording time and quantity of settlement, allow a life history of each membrane trial to be constructed. Each raft panel contains 35 compounds to be evaluated together with 4 standard poisons and 1 non-toxic membrane for control.
The behavior on the raft can thus be compared with that of the standard poisons and the non-toxic control. At normal loading a membrane over the standard poisons would be free from macro-fouling after six months immersion. Compounds showing selective effects against restricted groups of fouling organisms also show up by membrane testing.
^d Effective against Hydroids.

[2] = Amount of toxicant remaining in the test container after membrane diffusion raft tests; format: physicochemical; set-up: key: 0: empty or trace; +: some; + +: ample; details: after completion of membrane diffusion raft tests
How it was run: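 Known amount of compound held in a cylindrical container sealed with a membrane of known porosity, fixed to a raft panel so toxicant diffuses into the surrounding water. Each panel carries 35 test compounds, 4 standard poisons and 1 non-toxic membrane control. After the trial, container contents inspected visually for remaining toxicant (0 = empty or trace).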

[3] = Water solubility by UV spectrophotometric method; format: physicochemical; details: water, saturated solution; Table 1; read-out: Solubility by UV method
How it was run: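 Molar absorptivity determined from UV absorbance of a known-concentration aqueous solution at λmax (10 cm cell). Saturated solution prepared by stirring excess compound in deionized water ~72 hrs, filtered, diluted to mid-scale absorbance; solubility calculated from absorbance using that absorptivity.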

[4] = test system: weed; test: Membrane Diffusion Raft Trials, weed control; format: in vivo, grass-like algal growth common in sea water; details: membrane test, average 15 to 16 weeks of immersion
How it was run: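 Field raft test in sea water: known quantity of compound in container sealed with membrane of known porosity, diffusing into surrounding water; panels at waterline (illuminated, aerated) and flats (poorly lit, deeper). Fouling settlement inspected over about 15-16 weeks average immersion; scored 0 none, + some, ++ effective.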

[5] = test system: barnacle; test: Membrane Diffusion Raft Trials, barnacle control; format: in vivo, barnacles; details: membrane test, average 15 to 16 weeks of immersion
How it was run: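 Test compound held in a plastic container sealed by a porous membrane, diffusing into surrounding seawater on raft panels alongside standard poisons and a non-toxic control membrane. Settlement timed and quantified by regular inspection; scored 0 (none), + (some) or ++ (effective), averaging 15 to 16 weeks' immersion.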

[6] = test system: weed; test: Paint panel / plaque tests against weed (Table 2); format: in vivo, grass-like algal growth common in sea water; set-up: key: high performance; medium performance; low performance; poor or unacceptable performance; details: April to November, 1975
Source text: (3) PAINT FORMULATION AND TEST PANEL OR PLAQUE TESTS
In order to evaluate the compound under practical conditions, weighed quantities of promising compounds are ground in standard volumes of a selected range of paint media and brushed out on plaques for marine immersion.
The anti-fouling paint formulations used is exemplified by the following: […]
The most preferred specific compounds were utilized in paints including vinyl chloride-vinyl acetate copolymers, chlorinated rubber, acrylic emulsions, and conventional paints with or without rosin to contain 20% by weight of biocide in the wet film and in some cases (Example 144 and Example 145) with concentrations of 5, 10, and 15% based on the wet film. Each of the compounds is also described in the membrane tests noted above. The paints were applied at normal thicknesses to plaques or panels of 10 centimeters by 10 centimeters which were immersed in various positions as described for the raft noted above. The compounds and results, as against weed, in the season April to November, 1975, are as follows: […]

[7] = test system: Enteromorpha spores; test: Laboratory toxicity test (Lab Bioassay) with Enteromorpha spores; format: in vivo; details: using Enteromorpha spores
How it was run: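 Enteromorpha spores (zoospores or gametes) exposed to test compounds in laboratory toxicity tests. LD50 values expressed as percentage saturated solution.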

Row | Structure (SMILES) | Effective against Hydroids (footnote mark d) [1] | Contents at the end of test (amount of toxicants remaining in the test container) [2] | solubility [3] [µg/mL] | Weed Control [4] | Barnacle Control [5] | Effectiveness in paint CONV (conventional anti-fouling formulation) [6] | Effectiveness in paint CR (chlorinated rubber) [6] | Effectiveness in paint EM (acrylic emulsion) [6] | Effectiveness in paint V (polyvinyl chloride-acetate) [6] | Effectiveness in paint V/R (vinyl/rosin) [6] | Lab Bioassay LD50 [7]
1 | CCCCCCCCn1sc(Cl)cc1=O [Example 16] | d | 0 | 66 (≈ 266 µM) | + + | + + | – | – | – | – | – | –
2 | CCCCCCCCCCn1sc(Cl)cc1=O [Example 22] | d | 0 | 7.2 (≈ 26.1 µM) | + + | + + | – | – | – | – | – | –
3 | CCCCCCCCn1sc(Cl)c(Cl)c1=O [Example 57] | d | + + | 2.3 (≈ 8.15 µM) | + + | + + | m | h | h | h | h | 0.001 percentage saturated solution
4 | CCCCCCCCn1sc(Cl)c(Br)c1=O [Example 88] | d | + | 2.6 (≈ 7.96 µM) | + + | + + | – | – | – | – | – | –
